The values below come from patent publication US4394504A, “Cephalosporin derivatives” (American Home Products Corporation, priority 1981, dated 1983).

Test [1] concerns Pseudomonas aeruginosa (PS AE), strain 10145. The test can be described thus: Microdilution tube dilution assay MIC, Pseudomonas aeruginosa 10145. It counts as cell-based. The following applies: Mueller Hinton Broth, PS AE 10145. An excerpt:
(§1) The following examples are presented for purposes of illustration and should not be construed as limitations upon the true scope of this invention.
PS AE--Pseudomonas aeruginosa,
(§2) The product of Example 18 was reexamined by the microdilution method of tube dilution assay employing Mueller Hinton Broth whereby standardized cultures were introduced into serially diluted antibiotic from Example 18.
A general note: Dilution methods test growth across graded concentrations, often in twofold steps.

Test [2] has as its system Proteus mirablis (PR MI), strain 9921. The experiment in a line: Microdilution tube dilution assay MIC, Proteus mirablis 9921. It is filed as cell-based.
Text: as §1, §2

Test [3] concerns Escherichia coli (ES CO), strain 9637. The test can be described thus: Microdilution tube dilution assay MIC, Escherichia coli 9637. It counts as cell-based. The following applies: Mueller Hinton Broth, ES CO 9637.
Text: as §1, §2

Test [4] concerns Staphylococcus aureus (ST AU), strain 209P. The test can be described thus: Microdilution tube dilution assay MIC, Staphylococcus aureus 209P. It is filed as cell-based.
Text: as §1
(§3) ST AU--Staphylococcus aureus,
as §2

Test [5] has as its system Staphylococcus aureus (ST AU), strain SMITH. The test can be described thus: Microdilution tube dilution assay MIC, Staphylococcus aureus SMITH. It is filed as cell-based. The following applies: Mueller Hinton Broth.
Text: as §1, §3, §2

The test system of test [6] is Klebsiella pneumoniae (KL PN), strain 10031. The test can be described thus: Microdilution tube dilution assay MIC, Klebsiella pneumoniae 10031. It is filed as cell-based. The following applies: Mueller Hinton Broth, KL PN 10031.
Text: as §1
KL PN--Klebsiella pneumoniae,
as §2

Test [7] has as its system Enterobacter aerogenes (EN AE), strain 13048. The experiment in a line: Microdilution tube dilution assay MIC, Enterobacter aerogenes 13048. It is filed as cell-based. The following applies: Klebsiella aerogenes.
Text: as §1
EN AE--Enterobacter aerogenes,
as §2

Test [8] concerns Proteus vulgaris (PR VU), strain 6896. The test can be described thus: Microdilution tube dilution assay MIC, Proteus vulgaris 6896. It counts as cell-based. The following applies: Mueller Hinton Broth, PR VU 6896.
Text: as §1, §2

Test [9] concerns Staphylococcus aureus (ST AU), strain CHP. The experiment in a line: Microdilution tube dilution assay MIC, Staphylococcus aureus CHP. It is filed as cell-based. The following applies: Mueller Hinton Broth.
Text: as §1, §3, §2

Test [10] relates to Salmonella paratyphi (SA PA), strain 11737. The test can be described thus: Microdilution tube dilution assay MIC, Salmonella paratyphi 11737. It counts as cell-based. The following applies: Salmonella enterica.
Test [11] relates to Bacillus subtilis (BA SU), strain 6633. The test can be described thus: Microdilution tube dilution assay MIC, Bacillus subtilis 6633. It counts as cell-based.
Text: as §1
BA SU--Bacillus subtilis,
as §2

Test [12] deals with Bordetella brochiseptica (BO BR), strain 4617. The experiment in a line: Microdilution tube dilution assay MIC, Bordetella brochiseptica 4617. It counts as cell-based. The following applies: Mueller Hinton Broth, BO BR 4617.
Text: as §1
BO BR--Bordetella brochiseptica,
as §2

Test [13] concerns Staphylococcus aureus (ST AU), strain 53-180. The test can be described thus: Microdilution tube dilution assay MIC, Staphylococcus aureus 53-180. It counts as cell-based. The following applies: Mueller Hinton Broth, ST AU 53-180.
Text: as §1, §3, §2

Test [14] deals with Herellea species (HE SP), strain 9955. The experiment in a line: Microdilution tube dilution assay MIC, Herellea species 9955. The following applies: Mueller Hinton Broth, HE SP 9955. It is filed as cell-based.
Text: as §1, §2

The subject of a further test is ES IN, strain 65-1. The test can be described thus: Microdilution tube dilution assay MIC, ES IN 65-1. It counts as cell-based, Escherichia intermedia. The following applies: Citrobacter intermedius.
Text: as §1
ES IM--Escherichia intermedia.
as §2

The test system of test [15] is Staphylococcus aureus (ST AU), strain 6538P. The experiment in a line: Agar serial dilution MIC, Staphylococcus aureus 6538P. It counts as cell-based. The following applies: ST AU 6538P.
Text: (§4) The antibacterial compounds of this invention are effective against gram-positive and gram-negative test organisms at inhibitory concentrations at or below 250 micrograms per milliliter using the well-known and scientifically accepted agar serial dilution technique. Thus, the antibacterial agents of this invention are useful in the fields of comparative pharmacology and microbiology and may be used in the treatment of infections amenable to treatment with cephalosporins and penicillins such as bovine mastitis as well as in the eradication of bacterial colonies outside the animal host.
as §1
(§5) ST AU--Staphylococcus aureus, […]

Test [16] relates to Enterobacter cloacae (EN CL), strain 65-1. The experiment in a line: Agar serial dilution MIC, Enterobacter cloacae 65-1. The following applies: EN CL 65-1. It is filed as cell-based.
Text: as §4, §1
EN CL--Enterobacter cloacae, […]

Test [17] deals with Staphylococcus aureus (ST AU), strain CHP. The test can be described thus: Agar serial dilution MIC, Staphylococcus aureus CHP. It counts as cell-based.
Text: as §4, §1, §5

Test [18] concerns Staphylococcus aureus (ST AU), strain SMITH. The test can be described thus: Agar serial dilution MIC, Staphylococcus aureus SMITH. It counts as cell-based.
Text: as §4, §1, §5

The subject of test [19] is Salmonella paratyphi (SA PA), strain 11737. The experiment in a line: Agar serial dilution MIC, Salmonella paratyphi 11737. It counts as cell-based. The following applies: Salmonella enterica.
Text: as §4, §1
SA PA--Salmonella paratyphi, […]

In test [20] the test system is Proteus vulgaris (PR VU), strain 6896. The experiment in a line: Agar serial dilution MIC, Proteus vulgaris 6896. It counts as cell-based.
Text: as §4, §1

The test system of test [21] is Enterobacter aerogenes (EN AE), strain 13048. The experiment in a line: Agar serial dilution MIC, Enterobacter aerogenes 13048. It counts as cell-based. The following applies: Klebsiella aerogenes, EN AE 13048.
Text: as §4, §1
EN AE--Enterobacter aerogenes, […]

In test [22] the test system is Escherichia coli (ES CO), strain 9637. The experiment in a line: Agar serial dilution MIC, Escherichia coli 9637. It counts as cell-based. The following applies: ES CO 9637.
Text: as §4, §1

Test [23] has as its system Bacillus subtilis (BA SU), strain 6633. The experiment in a line: Agar serial dilution MIC, Bacillus subtilis 6633. It counts as cell-based.
Text: as §4, §1
BA SU--Bacillus subtilis, […]

Test [24] deals with Proteus mirablis (PR MI), strain 9921. The experiment in a line: Agar serial dilution MIC, Proteus mirablis 9921. It counts as cell-based.
Text: as §4, §1

For test [25], the system named is Staphylococcus aureus (ST AU), strain 53-180. The test can be described thus: Agar serial dilution MIC, Staphylococcus aureus 53-180. It is filed as cell-based.
Text: as §4, §1, §5

Test [26] has as its system Klebsiella pneumoniae (KL PN), strain 10031. The experiment in a line: Agar serial dilution MIC, Klebsiella pneumoniae 10031. It counts as cell-based. The following applies: KL PN 10031.
Text: as §4, §1
KL PN--Klebsiella pneumoniae, […]

In test [27] the test system is Bordetella brochiseptica (BO BR), strain 4617. The test can be described thus: Agar serial dilution MIC, Bordetella brochiseptica 4617. The following applies: BO BR 4617. It is filed as cell-based.
Text: as §4, §1
BO BR--Bordetella brochiseptica, […]

The subject of the next test is AC CA, strain 9955. The test can be described thus: Agar serial dilution MIC, AC CA 9955. It counts as cell-based.
Text: as §4, §1

Converted amounts (≈) assume the structure as drawn. Where two headings read alike, the source gives them in different places.

One may read the MIC as the least concentration at which growth counts as inhibited. Turning to `CO/N=C(\C(=O)N[C@@H]1C(=O)N2C(C(=O)O)=C(COC(C)=O)CS[C@H]12)c1csc(N)n1` [Cefotaxime, reference compound], the MIC in test [1] amounted to 3.9 µg/mL (≈ 8.56 µM); in test [2], 0.0019 µg/mL (≈ 0.00417 µM); in [3] it was 0.0038 µg/mL (≈ 0.00834 µM); in [4] (209P) it was 0.488 µg/mL (≈ 1.07 µM); in [5], 0.244 µg/mL (≈ 0.536 µM); in test [6] it was 0.06 ng/mL (≈ 0.000132 µM). Further, the MIC in [7] (microdilution, Mueller Hinton Broth, EN AE 13048, read-out: MIC) came out at 0.0152 µg/mL (≈ 0.0334 µM); in test [8], 0.00023 µg/mL (≈ 0.000505 µM); in test [9], 3.9 µg/mL (≈ 8.56 µM); in [10], 0.0076 µg/mL (≈ 0.0167 µM); in [11], 0.488 µg/mL (≈ 1.07 µM); in test [12], 15.6 µg/mL (≈ 34.3 µM). Also, the minimal inhibitory concentration (MIC) in test [13] came to 0.976 µg/mL (≈ 2.14 µM); in test [14], 15.6 µg/mL (≈ 34.3 µM); in the test on ES IN, strain 65-1 (microdilution, Mueller Hinton Broth, ES IN 65-1, read-out: MIC), 0.0038 µg/mL (≈ 0.00834 µM).

`CO/N=C(/C(=O)NC1C(=O)N2C(C(=O)O)=C(COC(C)=O)CSC12)c1cc(N)no1` (stereo not drawn) [Example 15, 3-Acetoxymethyl-7-[2-(3-Amino-5-Isoxazolyl)-2-anti-Methoxyiminoacetamido]-Ceph-3-em-4-Carboxylic Acid]: the MIC in test [15] was 7.81 µg/mL (≈ 17.8 µM); in test [16], 62.5 µg/mL (≈ 142 µM); in test [17] it was 15.6 µg/mL (≈ 35.5 µM); in test [18] (agar serial dilution, ST AU SMITH, read-out: MIC), 3.9 µg/mL (≈ 8.88 µM); in test [19] it was 15.6 µg/mL (≈ 35.5 µM); in [20] (agar serial dilution, PR VU 6896, read-out: MIC), 31.3 µg/mL (≈ 71.2 µM). Besides, the minimum inhibitory concentration (MIC) in test [21] amounted to 62.5 µg/mL (≈ 142 µM); in test [22], 15.6 µg/mL (≈ 35.5 µM); in test [23] (agar serial dilution, BA SU 6633, read-out: MIC), 7.81 µg/mL (≈ 17.8 µM); in [24] (agar serial dilution, PR MI 9921, read-out: MIC) it was 7.81 µg/mL (≈ 17.8 µM); in test [25], 15.6 µg/mL (≈ 35.5 µM); in test [26], 15.6 µg/mL (≈ 35.5 µM).

As for `CO/N=C(\C(=O)NC1C(=O)N2C(C(=O)O)=C(COC(C)=O)CSC12)c1cc(N)no1` (stereo not drawn) [Example 18, 3-Acetoxymethyl-7-[2-(3-Amino-5-Isoxazolyl)-2-syn-Methoxy-Iminoacetamido]-Ceph-3-em-4-Carboxylic Acid], the MIC was 250 µg/mL (≈ 569 µM) in [27]; 125 µg/mL (≈ 284 µM) in test [1]; 1.95 µg/mL (≈ 4.44 µM) in test [15]; 0.122 µg/mL (≈ 0.278 µM) in test [2] (microdilution, Mueller Hinton Broth, PR MI 9921, read-out: MIC); 1.95 µg/mL (≈ 4.44 µM) in test [16]; 7.81 µg/mL (≈ 17.8 µM) in test [17] (agar serial dilution, ST AU CHP, read-out: MIC). Further, the MIC in test [3] worked out at 0.122 µg/mL (≈ 0.278 µM); in test [4] (microdilution, Mueller Hinton Broth, ST AU 209P, read-out: MIC), 0.244 µg/mL (≈ 0.555 µM); in test [18], 0.488 µg/mL (≈ 1.11 µM); in test [5], 0.244 µg/mL (≈ 0.555 µM); in test [19], 0.488 µg/mL (≈ 1.11 µM); in test [6] it was 15.2 ng/mL (≈ 0.0346 µM). Further, the minimum inhibitory concentration (MIC) in [20] was found to be 0.976 µg/mL (≈ 2.22 µM); in [7], 0.976 µg/mL (≈ 2.22 µM); in test [8] it was 0.122 µg/mL (≈ 0.278 µM); against AC CA, strain 9955, 125 µg/mL (≈ 284 µM); in test [9], 3.9 µg/mL (≈ 8.88 µM); in test [10], 0.488 µg/mL (≈ 1.11 µM). The MIC in test [21] amounted to 31.3 µg/mL (≈ 71.2 µM); in test [11] (microdilution, Mueller Hinton Broth, BA SU 6633, read-out: MIC), 1.95 µg/mL (≈ 4.44 µM); in test [22], 0.488 µg/mL (≈ 1.11 µM); in test [12] it was 125 µg/mL (≈ 284 µM); in test [13] it was 0.488 µg/mL (≈ 1.11 µM); in [23] it was 0.488 µg/mL (≈ 1.11 µM). The minimal inhibitory concentration (MIC) in test [24] stood at 0.488 µg/mL (≈ 1.11 µM); in [25] (agar serial dilution, ST AU 53-180, read-out: MIC), 3.9 µg/mL (≈ 8.88 µM); in [14], 62.5 µg/mL (≈ 142 µM); in test [26] it was 0.488 µg/mL (≈ 1.11 µM); with ES IN, strain 65-1 it was 0.488 µg/mL (≈ 1.11 µM).
